This is an account of results in US20170253607A1, “LONG-ACTING HIV PROTEASE INHIBITOR” (Shionogi & Co., Ltd., priority 2014, published 2017).

In the test the target is HIV-1 PR (Human immunodeficiency virus type 1 group M subtype B, UniProt P04585). Nature of the test: HIV-protease inhibitory activity assay (FRET peptide substrate). Conditions: Test Example 1. Type of test: biochemical. How it is done: Test Example 1: HIV-Protease Inhibitory Activity Assay
The HIV-1 PR assay was performed by using a FRET (Fluorescence Resonance Energy Transfer) peptide substrate (AnaSpec, Inc., Fremont, Calif.). Initially in the intact FRET peptide, the fluorescence of HiLyte Fluor 488 is quenched by QXL 520. Upon substrate cleavage by PR, the fluorescence is recovered and can be monitored. Test compounds diluted in DMSO was plated to the wells of 384-well plate. Then, mixed with assay buffer (0.1 mol/L NaAc containing 0.5 mol/L NaCl, 1 mmol/L EDTA, 1 mmol/L DTT, and 0.05% Tween 20, pH 4.8) in the presence or absence of HIV-1 PR (0.83 ng), and let it stand for 5 minutes at room temperature. Background fluorescence intensity was measured and let it stand for another 15 minutes at room temperature. The enzyme reaction was started by adding substrate diluted in assay buffer at final concentration of 2 μmol/L, and let it stand for 60 minutes at room temperature. After 60 minutes, the fluorescence intensity was measured. Fluorescence intensity was measured with excitation and emission wavelengths of 485 nm and 535 nm, respectively.
IC50 values were determined using non-linear regression four-parameter logistic equation, y=A+((B−A)/(1+((C/x)̂D))) where A=minimum inhibition, B=maximum inhibition, C=log IC50, D=slope factor, x=concentration of compound and y=% inhibition.
Molecule `COc1ccc(S(=O)(=O)N(CC(C)C)CC(O)C(Cc2ccc(OC(C)(C)C(=O)NS(=O)(=O)c3cccc(-c4ccc(F)cc4F)c3)cc2)NC(=O)OC2COC3(C)OCCC23)cc1` (centres unmarked) [Compound I-57] registered an IC50 of 1.07 nM. The molecule `COc1ccc(S(=O)(=O)N(CC(C)C)CC(O)C(Cc2ccc(OCc3ccccc3-c3sc4c(c3C(=O)NS(=O)(=O)C3CC3)CC(C)(C)CC4)cc2)NC(=O)OC2COC3(C)OCCC23)cc1` (centres unmarked) [Compound I-58] came in with an IC50 of 1.11 nM. Under `CC(C)CN(CC(O)C(Cc1ccc(Oc2ccc(-c3ccc(F)cc3F)cc2C(=O)O)cc1)NC(=O)OC1COC2(C)OCCC12)S(=O)(=O)c1ccc2ncsc2c1` (centres unmarked) [Compound I-59] stands 1.19 nM; under `CC(C)CN(CC(O)C(Cc1ccc(OCc2cc(C(=O)O)cc(-c3ccc(F)cc3F)c2)cc1)NC(=O)OC1COC2(C)OCCC12)S(=O)(=O)c1ccc2ncsc2c1` (centres unmarked) [Compound I-60], 1.6 nM.

`CC(C)CN(CC(O)C(Cc1ccc(OCc2cc(-c3ccc(F)cc3F)ccc2C(=O)O)cc1)NC(=O)OC1COC2(C)OCCC12)S(=O)(=O)c1ccc2ncsc2c1` (centres unmarked) [Compound I-61] registered an IC50 of 1.9 nM. Under `CC(C)CN(CC(O)C(Cc1ccc(OCc2cc(-c3ccc(F)cc3F)ccc2C(N)=O)cc1)NC(=O)OC1COC2(C)OCCC12)S(=O)(=O)c1ccc2ncsc2c1` (centres unmarked) [Compound I-62] stands 0.82 nM; under `COc1ccc(S(=O)(=O)N(CC(C)C)CC(O)C(Cc2ccc(COc3ccc(-c4ccc(F)cc4F)cc3C(=O)O)cc2)NC(=O)OC2COC3(C)OCCC23)cc1` (centres unmarked) [Compound I-63], 0.89 nM; under `CC(C)CN(CC(O)C(Cc1ccc(OCc2ccccc2-c2ccccc2C(=O)O)cc1)NC(=O)OC1COC2(C)OCCC12)S(=O)(=O)c1ccc2ncsc2c1` (centres unmarked) [Compound I-64], 1.3 nM.

With `COc1ccc(S(=O)(=O)N(CC(C)C)CC(O)C(Cc2ccc(OCCNC(=O)C(=NO)c3cc(O)cc(Cl)c3)cc2)NC(=O)OC2COC3(C)OCCC23)cc1` (centres unmarked) [Compound I-67], the IC50 came to 1.88 nM. In turn, `COc1ccc(S(=O)(=O)N(CC(C)C)CC(O)C(Cc2ccc(OCCNC(=O)c3cc(Cl)cc(Cl)c3O)cc2)NC(=O)OC2COC3(C)OCCC23)cc1` (centres unmarked) [Compound I-68] registered an IC50 of 1.83 nM. With `COc1ccc(S(=O)(=O)N(CC(C)C)CC(O)C(Cc2ccc(OCc3ccccc3NC(=O)c3cc(Cl)cc(Cl)c3O)cc2)NC(=O)OC2COC3(C)OCCC23)cc1` (centres unmarked) [Compound I-69], the IC50 came to 1.17 nM. Under `COc1ccc(S(=O)(=O)N(CC(C)C)CC(O)C(Cc2ccc(OCc3ccccc3-c3ccc4c(c3)C(=O)C(c3ccc(F)cc3)C4=O)cc2)NC(=O)OC2COC3(C)OCCC23)cc1` (centres unmarked) [Compound I-70] stands 1.06 nM; under `COc1ccc(S(=O)(=O)N(CC(C)C)CC(O)C(Cc2ccc(OCc3ccccc3-c3ccc4c(c3)C(=O)C(c3ccc(C(F)(F)F)cc3)C4=O)cc2)NC(=O)OC2COC3(C)OCCC23)cc1` (centres unmarked) [Compound I-71], 1.77 nM; under `COc1ccc(S(=O)(=O)N(CC(C)C)CC(O)C(Cc2ccc(OCc3ccccc3-c3ccc4c(c3)C(=O)C(C3CCCCC3)C4=O)cc2)NC(=O)OC2COC3(C)OCCC23)cc1` (centres unmarked) [Compound I-72], 1.45 nM. Under `COc1ccc(S(=O)(=O)N(CC(C)C)CC(O)C(Cc2ccc(OCc3ccccc3-c3ccc4c(C(=O)O)c(-c5ccc(Cl)cc5C)sc4c3)cc2)NC(=O)OC2COC3(C)OCCC23)cc1` (centres unmarked) [Compound I-73] stands 4.73 nM. Under `COc1ccc(S(=O)(=O)N(CC(C)C)CC(O)C(Cc2ccc(OCc3ccccc3-c3ccc4c(O)c(-c5ccc(F)cc5)c(=O)n(-c5ccccc5)c4c3)cc2)NC(=O)OC2COC3(C)OCCC23)cc1` (centres unmarked) [Compound I-75] stands 1.19 nM; under `CCCCC1(Cc2ccc(COc3ccc(CC(NC(=O)OC4COC5(C)OCCC45)C(O)CN(CC(C)C)S(=O)(=O)c4ccc(OC)cc4)cc3)cc2)C(=O)N(c2ccccc2)N(c2ccccc2)C1=O` (centres unmarked) [Compound I-76], 1.35 nM; under `COc1ccc(S(=O)(=O)N(CC(C)C)CC(O)C(Cc2ccc(OCc3ccc(C#N)cc3-c3sc4c(c3C(=O)O)CC(C)(C)CC4)cc2)NC(=O)OC2COC3(C)OCCC23)cc1` (centres unmarked) [Compound I-80], 1.75 nM. `COc1ccc(S(=O)(=O)N(CC(C)C)CC(O)C(Cc2ccc(OCc3csc(-c4sc5c(c4C(=O)O)CC(C)(C)CC5)n3)cc2)NC(=O)OC2COC3(C)OCCC23)cc1` (centres unmarked) [Compound I-87]: half-maximal inhibition (IC50) was put at 1.32 nM. Under `COc1ccc(S(=O)(=O)N(CC(C)C)CC(O)C(Cc2ccc(OCc3ncsc3-c3sc4c(c3C(=O)O)CC(C)(C)CC4)cc2)NC(=O)OC2COC3(C)OCCC23)cc1` (centres unmarked) [Compound I-89] stands 1.11 nM; under `COc1ccc(S(=O)(=O)N(CC(C)C)CC(O)C(Cc2ccc(OCc3cccnc3-c3sc4c(c3C(=O)O)CC(C)(C)CC4)cc2)NC(=O)OC2COC3(C)OCCC23)cc1` (centres unmarked) [Compound I-90], 1.32 nM; under `COc1ccc(S(=O)(=O)N(CC(C)C)CC(O)C(Cc2ccc(OCc3ccc(-c4sc5c(c4C(=O)O)CC(C)(C)CC5)c(C)c3)cc2)NC(=O)OC2COC3(C)OCCC23)cc1` (centres unmarked) [Compound I-91], 1.35 nM. Under `COc1ccc(S(=O)(=O)N(CC(C)C)CC(O)C(Cc2ccc(OCc3cccc(-c4sc5c(c4C(=O)O)CC(C)(C)CC5)c3C)cc2)NC(=O)OC2COC3(C)OCCC23)cc1` (centres unmarked) [Compound I-92] stands 1.88 nM; under `COc1ccc(S(=O)(=O)N(CC(C)C)CC(O)C(Cc2ccc(OCC3CCCN3c3ccccc3-c3sc4c(c3C(=O)O)CC(C)(C)CC4)cc2)NC(=O)OC2COC3(C)OCCC23)cc1` (centres unmarked) [Compound I-95], 2.09 nM.

The molecule `COc1ccc(S(=O)(=O)N(CC(C)C)CC(O)C(Cc2ccc(OCc3ccccc3-c3sccc3C(=O)O)cc2)NC(=O)OC2COC3(C)OCCC23)cc1` (centres unmarked) [Compound I-97] returned an IC50 of 0.82 nM. `COc1ccc(S(=O)(=O)N(CC(C)C)CC(O)C(Cc2ccc(OC3CCCN(c4ccccc4-c4sc5c(c4C(=O)O)CC(C)(C)CC5)C3)cc2)NC(=O)OC2COC3(C)OCCC23)cc1` (centres unmarked) [Compound I-100]: the IC50 is 1.98 nM. In turn, `COc1ccc(S(=O)(=O)N(CC(C)C)CC(O)C(Cc2ccc(COC3CCCN3c3ccccc3-c3sc4c(c3C(=O)O)CC(C)(C)CC4)cc2)NC(=O)OC2COC3(C)OCCC23)cc1` (centres unmarked) [Compound I-103] came in with an IC50 of 3.75 nM. Under `CC(C)CN(CC(O)C(Cc1ccc(CCc2sc3c(c2C(=O)O)CC(C)(C)CC3)cc1)NC(=O)OC1COC2(C)OCCC12)S(=O)(=O)c1ccc2ncsc2c1` (centres unmarked) [Compound I-107] stands 2.37 nM. Under `COc1ccc(S(=O)(=O)N(CC(C)C)CC(O)C(Cc2ccc(-c3sccc3C(=O)O)cc2)NC(=O)OC2COC3(C)OCCC23)cc1` (centres unmarked) [Compound I-108] stands 1.12 nM; under `COc1ccc(S(=O)(=O)N(CC(C)C)CC(O)C(Cc2ccc(-c3cc(C(=O)O)cs3)cc2)NC(=O)OC2COC3(C)OCCC23)cc1` (centres unmarked) [Compound I-109], 1.2 nM; under `COc1ccc(S(=O)(=O)N(CC(C)C)CC(O)C(Cc2ccc(OCc3ncccc3-c3ccccc3-c3sc4c(c3C(=O)O)CC(C)(C)CC4)cc2)NC(=O)OC2COC3(C)OCCC23)cc1` (centres unmarked) [Compound I-110], 1.67 nM. Under `COc1ccc(S(=O)(=O)N(CC(C)C)CC(O)C(Cc2ccc(OCc3ncsc3-c3ccc(-c4sc5c(c4C(=O)O)CC(C)(C)CC5)cc3)cc2)NC(=O)OC2COC3(C)OCCC23)cc1` (centres unmarked) [Compound I-111] stands 1.48 nM. For `COc1ccc(S(=O)(=O)N(CC(C)C)CC(O)C(Cc2ccc(NCc3cccnc3-c3sc4c(c3C(=O)O)CC(C)(C)CC4)cc2)NC(=O)OC2COC3(C)OCCC23)cc1` (centres unmarked) [Compound I-128], the IC50 is 2.19 nM. Under `COc1ccc(S(=O)(=O)N(CC(C)C)CC(O)C(Cc2ccc(N(C)Cc3cccnc3-c3sc4c(c3C(=O)O)CC(C)(C)CC4)cc2)NC(=O)OC2COC3(C)OCCC23)cc1` (centres unmarked) [Compound I-129] stands 3.09 nM. Under `COc1ccc(S(=O)(=O)N(CC(C)C)CC(O)C(Cc2ccc(OCc3ccccc3-c3oc4c(c3C(=O)O)CCCC4)cc2)NC(=O)OC2COC3(C)OCCC23)cc1` (centres unmarked) [Compound I-130] stands 1.12 nM; under `COc1ccc(S(=O)(=O)N(CC(C)C)CC(O)C(Cc2ccc(Oc3ccc(-c4sc5c(c4C(=O)O)CC(C)(C)CC5)cc3)cc2)NC(=O)OC2COC3(C)OCCC23)cc1` (centres unmarked) [Compound I-133], 1.53 nM; under `COc1ccc(S(=O)(=O)N(CC(C)C)CC(O)C(Cc2ccc(Oc3ccc(-c4sc5c(c4C(=O)O)CC(C)(C)CC5)c(C(F)(F)F)c3)cc2)NC(=O)OC2COC3(C)OCCC23)cc1` (centres unmarked) [Compound I-135], 6.8 nM. Under `COc1ccc(S(=O)(=O)N(CC(C)C)CC(O)C(Cc2ccc(Oc3ccc(-c4sc5c(c4C(=O)O)CC(C)(C)CC5)c(OC)c3)cc2)NC(=O)OC2COC3(C)OCCC23)cc1` (centres unmarked) [Compound I-136] stands 1.4 nM; under `COc1ccc(S(=O)(=O)N(CC2CCCC2)CC(O)C(Cc2ccc(OCc3ccccc3-n3nc(C(=O)O)c4c3CCC(C(F)(F)F)C4)cc2)NC(=O)OC2COC3(C)OCCC23)cc1` (centres unmarked) [Compound I-141], 1.74 nM.

`COc1ccc(S(=O)(=O)N(CC(C)C)CC(O)C(Cc2ccc(OCc3ccccc3-n3nc(C(=O)O)c4c3CCC(C(F)(F)F)C4)cc2)NC(=O)OC2COC3(C)OCCC23)cc1` (centres unmarked) [Compound I-142]: the IC50 turned out to be 1.72 nM.

As to `COc1ccc(S(=O)(=O)N(CC(C)C)CC(O)C(Cc2ccc(OCc3ccccc3-n3nc4c(c3C(=O)O)Cc3ccccc3-4)cc2)NC(=O)OC2COC3(C)OCCC23)cc1` (centres unmarked) [Compound I-143], the IC50 amounted to 0.99 nM.
